Results on 2 molecules are retold here after patent publication US20120003668A1, “HIGH RESOLUTION COMPLEX STRUCTURE AND ALLOSTERIC EFFECTS OF LOW MOLECULAR WEIGHT ACTIVATORS ON THE PROTEIN KINASE PDK1” (UNIVERSITAET DES SAARLANDES, priority 2008, published 2012).

Assay [1] deals with T1, His-PDK1 50-556 / biotin-PIFtide interaction (Homo sapiens, UniProt O15530).
T1 sequence (O15530 50-556): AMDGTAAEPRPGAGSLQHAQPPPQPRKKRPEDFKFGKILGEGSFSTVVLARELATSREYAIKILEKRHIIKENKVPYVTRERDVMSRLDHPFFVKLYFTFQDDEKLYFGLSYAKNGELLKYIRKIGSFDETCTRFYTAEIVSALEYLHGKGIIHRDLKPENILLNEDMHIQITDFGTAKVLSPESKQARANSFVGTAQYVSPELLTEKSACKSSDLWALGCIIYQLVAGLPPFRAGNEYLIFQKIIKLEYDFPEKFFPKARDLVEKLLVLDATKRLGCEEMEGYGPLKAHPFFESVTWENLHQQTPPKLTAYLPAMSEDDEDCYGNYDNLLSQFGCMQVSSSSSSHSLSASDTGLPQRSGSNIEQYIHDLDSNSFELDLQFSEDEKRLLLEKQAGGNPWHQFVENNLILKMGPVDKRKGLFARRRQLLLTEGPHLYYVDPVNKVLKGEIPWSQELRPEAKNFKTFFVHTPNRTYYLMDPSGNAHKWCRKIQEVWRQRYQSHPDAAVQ
The experiment in a line: alpha-screen displacement of the His-PDK1 biotin-PIFtide interaction. The format is binding. How it is done:
To study if low molecular weight compounds displaced the interaction, the compounds were incubated with the mix and the displacement of the His-PDK1 biotin-PIFtide interaction measured as a decrease in light emission.

In the next assay the target is T2, PDK1 catalytic domain (Homo sapiens, UniProt O15530).
T2 construct: The catalytic domain (CD) of PDK1 50-359 and its mutants
T2 sequence (O15530 50-359): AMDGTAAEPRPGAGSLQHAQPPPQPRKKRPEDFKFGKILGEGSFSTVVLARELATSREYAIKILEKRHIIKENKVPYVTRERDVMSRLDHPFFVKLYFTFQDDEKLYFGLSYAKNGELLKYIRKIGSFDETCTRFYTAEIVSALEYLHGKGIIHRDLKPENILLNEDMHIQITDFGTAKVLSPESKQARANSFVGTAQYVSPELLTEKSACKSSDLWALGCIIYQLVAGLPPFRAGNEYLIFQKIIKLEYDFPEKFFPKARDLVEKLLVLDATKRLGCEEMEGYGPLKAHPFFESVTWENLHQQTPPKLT
The experiment in a line: TNP-ATP fluorescence probing of the ATP binding site conformation. Type of assay: biochemical. An excerpt: Probing the conformation of the ATP binding site in PDK1: The activation of PDK1 by HM-polypeptides and small compounds is due to a change in the conformation of the enzyme. We probed the conformation of the ATP binding site in PDK1 by scanning the steady-state fluorescence of TNP-ATP/PDK1, in the presence or absence of P-HM-polypeptides, PIFtide, or small molecular weight compounds. Data were obtained in a Varian Cary Eclipse spectrofluorometer (excitation λ=479 nm; emission scanning, λ=500-600 nm; excitation slit=10 nm; emission slit=10 nm) at a rate of 200 nm/min, with 150 datapoints/100 nm scanning and 0.3 s averaging time. The incubation was performed at 20° C. in a buffer containing 50 mM Tris pH 7.5, 0.1 mM EDTA, 187 mM NaCl, 40 μM TNP-ATP, 15 μM PDK1 catalytic domain, 1 mM DTT and 1% DMSO. In the absence of PDK1, TNP-ATP produced approximately 1.5 arbitrary units (a.u.) of fluorescence, and the inclusion of PDK1 increased its fluorescence intensity to approximately 3.3 a.u. […] In preliminary tests, inclusion of 2.5 mM MgCl2 in the assay mix produced similar results. Data for each condition are the average of 3 scans.

For assay [2], the target named is T3, PDK1 50-359 [Y288G;Q292A] (Homo sapiens, UniProt O15530, Q292A/Y288G).
T3 sequence (O15530 with tags, fused parts or gaps Y288G/Q292A): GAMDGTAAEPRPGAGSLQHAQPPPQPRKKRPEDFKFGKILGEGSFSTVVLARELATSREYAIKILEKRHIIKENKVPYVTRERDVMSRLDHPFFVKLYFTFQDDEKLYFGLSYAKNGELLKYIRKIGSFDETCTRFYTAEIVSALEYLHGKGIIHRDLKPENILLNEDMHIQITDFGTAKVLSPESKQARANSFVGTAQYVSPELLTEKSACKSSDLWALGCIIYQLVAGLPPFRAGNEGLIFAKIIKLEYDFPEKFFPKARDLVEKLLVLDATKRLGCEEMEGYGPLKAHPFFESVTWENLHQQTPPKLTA
Put plainly: Amide 1H/2H exchange and mass spectrometry.
Method: For local exchange analysis, the labeled proteins were digested with pepsin and the resulting polypeptides analyzed by tandem mass-spectrometry (LC-MS/MS) for their incorporation of deuterium atoms. The graphics represent the number of deuterium atoms incorporated into each polypeptide upon the stated incubation time in deuterated water. […] Over time, amide hydrogen atoms exchanged for deuteriums and the molecular weight of the protein increased. We repeated the ^1H/^2H exchange experiments at four different incubation times: 1, 5, 15 and 45 minutes. […] In the presence of peptide or small compounds, protein and ligand solution were pre-incubated on ice for 50 min before the mixture was diluted into labeling buffer. After the exchange reaction, samples were loaded on a pepsin column for one minute for digestion into peptides and samples quenched at each time point. They were then subjected to liquid chromatography for separation and analyzed by tandem mass-spectrometry (LC-MS/MS) for their incorporation of deuterium atoms. The entire plumbing system was immersed in an ice bath. 61 polypeptides were identified with overlapping regions, covering 80% of PDK1 sequence. As it is not possible to predict the cleavage sites of pepsin in the PDK1 sequence, it was necessary to identify the peptides generated by pepsin digestion for local-exchange analysis.

The target in a further assay is T4, PDK1 CD (50-359) wt (human, UniProt O15530 51-360).
T4 construct: also called PDK1 50-359; PDK1 CD wt
T4 sequence: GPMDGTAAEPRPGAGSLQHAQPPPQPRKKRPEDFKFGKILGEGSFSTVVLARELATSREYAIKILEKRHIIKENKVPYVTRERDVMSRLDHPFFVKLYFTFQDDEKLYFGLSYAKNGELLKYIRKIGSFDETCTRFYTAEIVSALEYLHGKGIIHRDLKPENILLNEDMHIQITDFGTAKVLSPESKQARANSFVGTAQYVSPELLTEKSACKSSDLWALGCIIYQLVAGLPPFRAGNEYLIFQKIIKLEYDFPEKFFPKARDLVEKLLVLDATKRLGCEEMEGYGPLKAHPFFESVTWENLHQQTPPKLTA
Put plainly: SPR competition (BiaCore): PDK1 CD wt pre-incubated with PIFtide, then injected over immobilised biotin-P-HM-S6K; PIFtide displaces PDK1 from biotin-P-HM-S6K. (In general: Surface plasmon resonance follows binding to a sensor surface in real time, without labels.)

Assay [3] addresses T5, PDK1 CD (50-359) [Phe224Trp] (human, UniProt O15530 50-359).
T5 construct: also called PDK1[Phe224Trp]; PDK1 Phe224Trp
T5 sequence: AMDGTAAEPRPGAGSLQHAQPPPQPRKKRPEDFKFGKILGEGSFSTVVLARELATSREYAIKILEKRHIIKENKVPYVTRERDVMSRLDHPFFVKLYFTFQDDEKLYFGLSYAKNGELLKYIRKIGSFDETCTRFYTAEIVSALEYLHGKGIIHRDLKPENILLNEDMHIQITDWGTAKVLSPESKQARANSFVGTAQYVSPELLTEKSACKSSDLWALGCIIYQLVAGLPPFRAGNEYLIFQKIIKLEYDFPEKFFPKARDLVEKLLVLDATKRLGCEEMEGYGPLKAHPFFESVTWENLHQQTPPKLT
Put plainly: SPR competition (BiaCore): PDK1 [Phe224Trp] pre-incubated with PIFtide, then injected over immobilised biotin-P-HM-S6K; PIFtide displaces PDK1 from biotin-P-HM-S6K.

Assay [4] deals with T6, PDK1 CD (50-359) [Thr226Trp] (human, UniProt O15530 50-359).
T6 construct: also called PDK1[Thr226Trp]; PDK1 Thr226Trp
T6 sequence: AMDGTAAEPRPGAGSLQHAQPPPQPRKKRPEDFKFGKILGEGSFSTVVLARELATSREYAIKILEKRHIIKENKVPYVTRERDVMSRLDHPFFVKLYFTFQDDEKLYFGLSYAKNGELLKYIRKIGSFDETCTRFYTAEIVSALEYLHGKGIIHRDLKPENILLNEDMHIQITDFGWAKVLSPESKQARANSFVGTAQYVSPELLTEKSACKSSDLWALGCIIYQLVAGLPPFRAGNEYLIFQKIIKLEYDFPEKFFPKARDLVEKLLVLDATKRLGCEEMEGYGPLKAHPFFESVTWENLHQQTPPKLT
Put plainly: SPR competition (BiaCore): PDK1 [Thr226Trp] pre-incubated with PIFtide, then injected over immobilised biotin-P-HM-S6K; PIFtide displaces PDK1 from biotin-P-HM-S6K.

Entries after “also recorded” stand apart in the source; their conditions may differ.

`O=C(O)/C=C(/CCc1ccc(Br)cc1F)c1ccccc1` [PS08]: the “displacement of the binding of PIFtide to PDK1” value in assay [1] was “could be displaced”. On PDK1 catalytic domain (40 μM TNP-ATP, 15 μM PDK1 catalytic domain), the “effect on TNP-ATP fluorescence intensity in the presence of PDK1” value is reported as “concentration dependent decrease; also recorded: concentration-dependent decrease”. In addition, the “maximum fluorescence intensity of TNP-ATP/PDK1” value at PDK1 catalytic domain (167 μM compound, % of maximal TNP-ATP fluorescence with 15 μM PDK1 CD) stood at 60%. In assay [2], the “decreased 2H incorporation, peptide 108-121” value is 1 ^2H. In assay [2] (first time point), the “2H less incorporated, peptide 108-134” value is on record as 4 ^2H and the “2H less incorporated, peptide 218-247” value is 1.5 ^2H. Moreover, the “2H less incorporated, peptide 108-134” value in assay [2] (following time points) is given as 2 ^2H. For the same molecule, the “2H less incorporated, peptide 146-155” value in assay [2] (time points 15 and 45) is 1 ^2H.
In the case of REPRILSEEEQEMFRDFDYIADWC (also called HM-polypeptide PIFtide) [PIFtide], the binding result (with PDK1 CD (50-359) wt; in assay [3]; in assay [4]) was “binds” each time.
